Reference: patent publication US4214091A, “Antibiotic No. 2-200 and process for producing thereof” (Chugai Seiyaku Kabushiki Kaisha, priority 1977, dated 1980)
In brackets after ≈: the same amount, converted by molar mass. Read-outs that look alike come from different tables or passages of the source.

Assays:
[1] = test system: Bacteroides fragilis V-6; test: MIC, GAM agar, anaerobic; format: cell-based; details: V6, 40 h, read-out: Minimum inhibitory concentration (MIC)
Experimental: (§1) Minimum inhibitory concentration (MIC) for gram
(§2) Note: incubated at 37° C. for 40 hours on GAM agar medium (product
(§3) of Nippon Seiyaku) using anaerobic incubator. Inoculated with 10^6

[2] = test system: Bacteroides fragilis V-7; test: MIC, GAM agar, anaerobic; format: cell-based; details: V7, 40 h, read-out: Minimum inhibitory concentration (MIC)
Experimental: as §1, §2, §3

[3] = test system: Bacteroides fragilis V-8; test: MIC, GAM agar, anaerobic; format: cell-based; details: V8, 40 h, read-out: Minimum inhibitory concentration (MIC)
Experimental: as §1, §2, §3

[4] = test system: Fusobacterium glutinosum 1006; test: MIC, GAM agar, anaerobic; format: cell-based; details: 37° C., 40 hours, inoculum 10^6/ML, read-out: Minimum inhibitory concentration (MIC)
Experimental: as §1, §2, §3

[5] = test system: Fusobacterium necroforum S-45; test: MIC, GAM agar, anaerobic; format: cell-based; details: S45, 37° C., 40 hours, inoculum 10^6/ML, read-out: Minimum inhibitory concentration (MIC)
Experimental: as §1, §2, §3

[6] = test system: Escherichia coli NIHJ; test: MIC by agar plate dilution method; format: cell-based; details: 24 h, 37° C., read-out: Minimum inhibitory concentration
Experimental: (§4) The test organisms were incubated by agar plate dilution method at 37° C. for 24 hours, after which their growth was observed. The test organisms were incubated on an NB medium (product of Eiken Kagaku) at 37° C. overnight, and each culture obtained was diluted 10^3 - to 10^4 -fold and stamped on an agar plate. The following agar plate media were used:
(§5) NA: nutrient agar (product of Eiken Kagaku)
(§6) NA+G6P: glucose-6-phosphoric acid (50 μg/ml) plus nutrient agar
(§7) Anti-3A: antibiotic medium No. 3 agar (product of Difco)
(§8) MHA: Mueller Hinton Agar (product of Eiken Kagaku)

[7] = test system: Pseudomonas aeruginosa M57740; test: MIC by agar plate dilution method; format: cell-based
Experimental: as §4, §5, §6, §7, §8

[8] = acute toxicity, single administration; details: mouse, in vivo, pH 7, read-out: median lethal dose (LD50)
Experimental: (§9) The crystal of the antibiotic No. 2-200 obtained in Example 4 was floated in sterile distilled water, mixed with 5% caustic soda to adjust the pH to 7.0, and dissolved to make a solution. The solution was adminstered to 5-week-old ddY male mice to examine its actuate toxicity as well as delayed toxicity. During 10 days that followed the administration, the weight of each mouse, its food intake and water intake were measured.

[9] = test system: 5-week-old ddY male mice; details: mouse, in vivo
Experimental: as §9

[10] = Solubility in solvents; format: physicochemical
[11] = test system: gram negative bacteria; test: antibacterial activity (general statement); format: cell-based
[12] = test system: bacteria of genus Salmonella; test: antibacterial activity (general statement); format: cell-based
[13] = test system: bacteria of genus Serratia; test: antibacterial activity (general statement); format: cell-based
[14] = test system: mutant of Pseudomonus aeroginosa, for example, G-75, M-57740; test: growth inhibition of β-lactam-sensitive mutant; format: cell-based; details: mutant sensitive to a β-lactam antibiotic
Excerpt: The present inventors further continued their studies and succeeded in isolating from a culture of actinomycete an effective substance as a crystal, which was subjected to X-ray diffractometry to determine its structure. […] This invention is a development of studies based on these findings.

[15] = test system: mammals; details: in vivo

`C=CC(C)=CC1(C)SC(=O)C(C)=C1O` (single isomer, unassigned) [No. 2-200] showed an MIC [1] of 3.12 µg/mL (≈ 14.8 µM), an MIC [2] of 12.5 µg/mL (≈ 59.4 µM) and an MIC [3] of 6.25 µg/mL (≈ 29.7 µM). For the same compound, the MIC [4] was 100 µg/mL (≈ 476 µM), the MIC [5] was 3.12 µg/mL (≈ 14.8 µM) and the MIC ([6]; Anti-3A) was 200 µg/mL (≈ 951 µM). It also gave an MIC ([6]; MHA) of 50 µg/mL (≈ 238 µM), an MIC ([6]; NA + G6P (50 μg/ml)) of 100 µg/mL and an MIC ([6]; NA) of 200 µg/mL (≈ 951 µM). The MIC ([7]; M57740, 24 h, read-out: Minimum inhibitory concentration, Anti-3A, 37° C.) was 1.56 µg/mL (≈ 7.42 µM), the MIC ([7]; M57740, 24 h, read-out: Minimum inhibitory concentration, NA + G6P (50 μg/ml), 37° C.) was 1.56 µg/mL and the MIC ([7]; M57740, 24 h, read-out: Minimum inhibitory concentration, NA, 37° C.) was 1.56 µg/mL (≈ 7.42 µM). It also gave an MIC ([7]; M57740, MHA, 37° C., 24 hours, read-out: Minimum inhibitory concentration) of no more than 0.78 µg/mL, an LD50 at 240 h ([8]; ip) of 810 mg/kg and an LD50 at 240 h ([8]; iv) of 705 mg/kg. The delayed toxicity [9] was “entirely free from delayed toxicity”, the solubility ([10]; acetone) was “easily soluble” and the solubility ([10]; alkaline water) was “easily soluble”. The solubility ([10]; ethyl acetate) was “easily soluble”, the solubility ([10]; methanol) was “easily soluble” and the solubility ([10]; neutral to acidic water) was “slightly soluble”. The “antibacterial activity to gram negative bacteria” value [11] was “exhibits antibacterial activity”, the “antibacterial activity to bacteria of genus Salmonella” value [12] was “particularly strong antibacterial activity” and the “antibacterial activity to bacteria of genus Serratia” value [13] was “particularly strong antibacterial activity”. The inhibition of growth [14] was “strongly inhibits the growth” and the “delayed toxicity (general statement)” value [15] was “no delayed toxicity”.
